Test results: the NIST ThermoML archive (doi:10.1016/j.jct.2015.04.006)
± gives the expanded uncertainty stated by the source.

Assay: mn = molality of the nth substance listed, in mol/kg
Settings: 100 kPa, Liquid; for speed of sound: Frequency=3 MHz, Sing-around technique in a fixed-path interferometer; for mass density: Vibrating tube method

CCCCCCCC[N+]1(C)CCOCC1.O=S(=O)([N-]S(=O)(=O)C(F)(F)F)C(F)(F)F + C[S+](C)[O-]
Settings	mass density, 298.15 K [kg/m3]	mass density, 303.15 K [kg/m3]	mass density, 308.15 K [kg/m3]	mass density, 313.15 K [kg/m3]	mass density, 318.15 K [kg/m3]	speed of sound, 298.15 K [m/s]	speed of sound, 303.15 K [m/s]	speed of sound, 308.15 K [m/s]	speed of sound, 313.15 K [m/s]	speed of sound, 318.15 K [m/s]
m1 = 0.0104	1096.19 ± 0.21	1091.17 ± 0.21	1086.16 ± 0.21	1081.14 ± 0.21	1076.13 ± 0.21	1483.5 ± 1.2	1466.6 ± 1.2	1449.8 ± 1.2	1433 ± 1.2	1416.5 ± 1.2
m1 = 0.01752	1096.81 ± 0.21	1091.79 ± 0.21	1086.78 ± 0.21	1081.77 ± 0.21	1076.76 ± 0.21	1482.7 ± 1.2	1465.8 ± 1.2	1449 ± 1.2	1432.3 ± 1.2	1415.8 ± 1.2
m1 = 0.0266	1097.59 ± 0.21	1092.58 ± 0.21	1087.57 ± 0.21	1082.56 ± 0.21	1077.56 ± 0.21	1481.7 ± 1.2	1464.8 ± 1.2	1448.1 ± 1.2	1431.4 ± 1.2	1414.9 ± 1.2
m1 = 0.03779	1098.55 ± 0.21	1093.54 ± 0.21	1088.53 ± 0.21	1083.53 ± 0.21	1078.53 ± 0.21	1480.5 ± 1.2	1463.7 ± 1.2	1446.9 ± 1.2	1430.2 ± 1.2	1413.8 ± 1.2
m1 = 0.04989	1099.57 ± 0.21	1094.57 ± 0.21	1089.57 ± 0.21	1084.57 ± 0.21	1079.57 ± 0.21	1479.2 ± 1.2	1462.4 ± 1.2	1445.7 ± 1.2	1429 ± 1.2	1412.6 ± 1.2
m1 = 0.06889	1101.17 ± 0.21	1096.17 ± 0.21	1091.17 ± 0.21	1086.18 ± 0.21	1081.19 ± 0.21	1477.2 ± 1.2	1460.4 ± 1.2	1443.7 ± 1.2	1427.1 ± 1.2	1410.8 ± 1.2
m1 = 0.08629	1102.6 ± 0.2	1097.62 ± 0.2	1092.62 ± 0.2	1087.64 ± 0.2	1082.65 ± 0.2	1475.3 ± 1.2	1458.6 ± 1.2	1441.9 ± 1.2	1425.4 ± 1.2	1409.1 ± 1.2
m1 = 0.1068	1104.29 ± 0.2	1099.3 ± 0.2	1094.32 ± 0.2	1089.34 ± 0.2	1084.36 ± 0.2	1473.2 ± 1.2	1456.5 ± 1.2	1439.9 ± 1.2	1423.4 ± 1.2	1407.1 ± 1.2
m1 = 0.1403	1106.96 ± 0.2	1101.99 ± 0.2	1097.02 ± 0.2	1092.04 ± 0.2	1087.08 ± 0.2	1469.8 ± 1.2	1453.1 ± 1.2	1436.6 ± 1.2	1420.2 ± 1.2	1404 ± 1.2
m1 = 0.1703	1109.31 ± 0.2	1104.34 ± 0.2	1099.38 ± 0.2	1094.41 ± 0.2	1089.45 ± 0.2	1466.8 ± 1.2	1450.2 ± 1.2	1433.8 ± 1.2	1417.4 ± 1.2	1401.2 ± 1.2

CCCC[N+]1(C)CCOCC1.O=S(=O)([N-]S(=O)(=O)C(F)(F)F)C(F)(F)F + C[S+](C)[O-]
Settings	mass density, 298.15 K [kg/m3]	mass density, 303.15 K [kg/m3]	mass density, 308.15 K [kg/m3]	mass density, 313.15 K [kg/m3]	mass density, 318.15 K [kg/m3]	speed of sound, 298.15 K [m/s]	speed of sound, 303.15 K [m/s]	speed of sound, 308.15 K [m/s]	speed of sound, 313.15 K [m/s]	speed of sound, 318.15 K [m/s]
m1 = 0.01276	1096.62 ± 0.24	1091.6 ± 0.24	1086.58 ± 0.24	1081.57 ± 0.24	1076.55 ± 0.24	1483.5 ± 1.2	1466.6 ± 1.2	1449.8 ± 1.2	1433.1 ± 1.2	1416.5 ± 1.2
m1 = 0.01778	1097.14 ± 0.24	1092.12 ± 0.24	1087.11 ± 0.24	1082.09 ± 0.24	1077.08 ± 0.24	1483 ± 1.2	1466.2 ± 1.2	1449.3 ± 1.2	1432.6 ± 1.2	1416.1 ± 1.2
m1 = 0.02681	1098.08 ± 0.24	1093.06 ± 0.24	1088.05 ± 0.24	1083.03 ± 0.24	1078.02 ± 0.24	1482.2 ± 1.2	1465.4 ± 1.2	1448.6 ± 1.2	1431.9 ± 1.2	1415.4 ± 1.2
m1 = 0.04025	1099.46 ± 0.24	1094.44 ± 0.24	1089.43 ± 0.24	1084.42 ± 0.24	1079.41 ± 0.24	1481 ± 1.2	1464.2 ± 1.2	1447.5 ± 1.2	1430.8 ± 1.2	1414.3 ± 1.2
m1 = 0.05498	1100.96 ± 0.24	1095.95 ± 0.24	1090.94 ± 0.24	1085.93 ± 0.24	1080.93 ± 0.24	1479.7 ± 1.2	1462.9 ± 1.2	1446.2 ± 1.2	1429.6 ± 1.2	1413.1 ± 1.2
m1 = 0.06956	1102.43 ± 0.23	1097.42 ± 0.23	1092.42 ± 0.23	1087.41 ± 0.23	1082.41 ± 0.23	1478.5 ± 1.2	1461.7 ± 1.2	1445 ± 1.2	1428.4 ± 1.2	1412 ± 1.2
m1 = 0.08753	1104.23 ± 0.23	1099.22 ± 0.23	1094.22 ± 0.23	1089.22 ± 0.23	1084.22 ± 0.23	1476.9 ± 1.2	1460.1 ± 1.2	1443.5 ± 1.2	1426.9 ± 1.2	1410.6 ± 1.2
m1 = 0.1103	1106.47 ± 0.23	1101.47 ± 0.23	1096.47 ± 0.23	1091.48 ± 0.23	1086.48 ± 0.23	1475 ± 1.2	1458.2 ± 1.2	1441.6 ± 1.2	1425.1 ± 1.2	1408.8 ± 1.2
m1 = 0.1334	1108.73 ± 0.23	1103.73 ± 0.23	1098.73 ± 0.23	1093.74 ± 0.23	1088.75 ± 0.23	1472.9 ± 1.2	1456.3 ± 1.2	1439.7 ± 1.2	1423.3 ± 1.2	1407 ± 1.2
m1 = 0.1687	1112.1 ± 0.23	1107.11 ± 0.23	1102.12 ± 0.23	1097.13 ± 0.23	1092.14 ± 0.23	1470 ± 1.2	1453.4 ± 1.2	1436.9 ± 1.2	1420.5 ± 1.2	1404.4 ± 1.2

CC[N+]1(C)CCOCC1.O=S(=O)([N-]S(=O)(=O)C(F)(F)F)C(F)(F)F + C[S+](C)[O-]
Settings	mass density, 298.15 K [kg/m3]	mass density, 303.15 K [kg/m3]	mass density, 308.15 K [kg/m3]	mass density, 313.15 K [kg/m3]	mass density, 318.15 K [kg/m3]	speed of sound, 298.15 K [m/s]	speed of sound, 303.15 K [m/s]	speed of sound, 308.15 K [m/s]	speed of sound, 313.15 K [m/s]	speed of sound, 318.15 K [m/s]
m1 = 0.01623	1097.17 ± 0.26	1092.15 ± 0.26	1087.13 ± 0.26	1082.12 ± 0.26	1077.11 ± 0.26	1483.4 ± 1.2	1466.5 ± 1.2	1449.7 ± 1.2	1433 ± 1.2	1416.4 ± 1.2
m1 = 0.02434	1098.11 ± 0.26	1093.09 ± 0.26	1088.07 ± 0.26	1083.06 ± 0.26	1078.05 ± 0.26	1482.8 ± 1.2	1465.9 ± 1.2	1449.1 ± 1.2	1432.4 ± 1.2	1415.9 ± 1.2
m1 = 0.03937	1099.83 ± 0.26	1094.82 ± 0.26	1089.8 ± 0.26	1084.79 ± 0.26	1079.78 ± 0.26	1481.6 ± 1.2	1464.8 ± 1.2	1448 ± 1.2	1431.3 ± 1.2	1414.9 ± 1.2
m1 = 0.04917	1100.95 ± 0.26	1095.93 ± 0.26	1090.92 ± 0.26	1085.91 ± 0.26	1080.9 ± 0.26	1480.9 ± 1.2	1464 ± 1.2	1447.3 ± 1.2	1430.7 ± 1.2	1414.2 ± 1.2
m1 = 0.063	1102.51 ± 0.26	1097.5 ± 0.26	1092.49 ± 0.26	1087.48 ± 0.26	1082.47 ± 0.26	1479.8 ± 1.2	1463 ± 1.2	1446.3 ± 1.2	1429.7 ± 1.2	1413.3 ± 1.2
m1 = 0.07874	1104.28 ± 0.26	1099.27 ± 0.26	1094.26 ± 0.25	1089.26 ± 0.25	1084.25 ± 0.25	1478.6 ± 1.2	1461.8 ± 1.2	1445.2 ± 1.2	1428.6 ± 1.2	1412.2 ± 1.2
m1 = 0.09932	1106.57 ± 0.25	1101.56 ± 0.25	1096.55 ± 0.25	1091.55 ± 0.25	1086.55 ± 0.25	1477 ± 1.2	1460.3 ± 1.2	1443.7 ± 1.2	1427.2 ± 1.2	1410.8 ± 1.2
m1 = 0.1197	1108.8 ± 0.25	1103.8 ± 0.25	1098.79 ± 0.25	1093.79 ± 0.25	1088.79 ± 0.25	1475.5 ± 1.2	1458.8 ± 1.2	1442.3 ± 1.2	1425.8 ± 1.2	1409.5 ± 1.2
m1 = 0.1515	1112.25 ± 0.25	1107.24 ± 0.25	1102.24 ± 0.25	1097.25 ± 0.25	1092.25 ± 0.25	1473.2 ± 1.2	1456.5 ± 1.2	1440 ± 1.2	1423.6 ± 1.2	1407.4 ± 1.2
